Results published in patent US11285156B2, “Substituted piperazines as KRAS G12C inhibitors” (Amgen Inc., priority 2018, dated 2022).
Like-named read-outs stand apart in the source and are kept apart here.

Columns and labels:
[1] = target: GDP-bound KRAS protein (aa 1-169), containing both G12C and C118A amino acid substitutions (Homo sapiens (Human), UniProt P01116, C118A/G12C); assay: Coupled nucleotide exchange assay (SOS-mediated nucleotide exchange, AlphaScreen); format: biochemical; details: 5 min compound pre-incubation; for IC50: read-out: Coupled exchange IC50 (5 min; μM)
GDP-bound KRAS protein (aa 1-169), containing both G12C and C118A amino acid substitutions, sequence (P01116 other isoform, or with tags, fused parts or gaps G12C/C118A): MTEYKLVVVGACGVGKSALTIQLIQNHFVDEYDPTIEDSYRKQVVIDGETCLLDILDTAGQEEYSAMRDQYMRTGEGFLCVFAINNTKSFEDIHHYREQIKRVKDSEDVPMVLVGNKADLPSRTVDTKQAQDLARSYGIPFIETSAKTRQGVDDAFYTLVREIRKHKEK

[2] = system: Phosphorylation of ERK1/2 in MIA PaCa-2 cells; assay: Phospho-ERK1/2 MSD assay in MIA PaCa-2 cells; format: cell-based; details: read-out: p-ERK IC50 (2 h, MiaPaCa-2; μM), 2 h compound treatment, MIA PaCa-2 cells, EGF stimulated
Protocol: Phospho-ERK1/2 MSD Assay:
Sixteen hours prior to compound treatment, MIA PaCa-2 or A549 cells were seeded in 96-well cell culture plates at a density of 25,000 cells/well and incubated at 37° C., 5% CO2. A compound dose-response titration was diluted in growth media, added to appropriate wells of a cell culture plate, and then incubated at 37° C., 5% CO2 for 2 or 4 hours (see Table 15). Following compound treatment, cells were stimulated with 10 ng/mL EGF (Roche 11376454001) for 10 min, washed with ice-cold Dulbecco's phosphate-buffered saline, no Ca2+ or Mg2+ (ThermoFisher Scientific 14190144), and then lysed in RIPA buffer (50 mM Tris-HCl pH 7.5, 1% Igepal, 0.5% sodium deoxycholate, 150 mM NaCl. and 0.5% sodium dodecyl sulfate) containing protease inhibitors (Roche 4693132001) and phosphatase inhibitors (Roche 4906837001). Phosphorylation of ERK1/2 in compound-treated lysates was assayed using Phospho-ERK1/2 Whole Cell Lysate kits (Meso Scale Discovery K151DWD) according to the manufacturer's protocol.

| SMILES | IC50 [1] [µM] | further results |
| --- | --- | --- |
| C=CC(=O)N1[C@H](C)CN(c2nc(=O)n(-c3c(C)cc(N)nc3C(C)C)c3nc(-c4c(N)cccc4F)c(F)cc23)C[C@@H]1C (single isomer, unassigned) [Example 123-5] | 7.53 | IC50 [2]: 10 µM |
| C=CC(=O)N1C[C@H](C)N(c2nc(=O)n3c4nc(c(Cl)cc24)-c2ccccc2C/C=C/Cc2cccc(C(C)C)c2-3)C[C@H]1C (single isomer, unassigned) [Example 146-2-1] | 0.025 | IC50 [2]: 0.024 µM |
| C=CC(=O)N1C[C@H](C)N(c2nc(=O)n(-c3c(N(C)C)ccnc3C(C)C)c3nc(-c4c(F)cccc4NC(=O)CC)c(Cl)cc23)C[C@H]1C [Example 122-2, N-[2-[6-Chloro-1-[4-(dimethylamino)-2-isopropyl-3-pyridyl]-4-[(2S,5R)-2,5-dimethyl-4-prop-2-enoyl-piperazin-1-yl]-2-oxo-pyrido[2,3-d]pyrimidin-7-yl]-3-fluoro-phenyl]propanamide] | 0.357 | IC50 ([2]; Homo sapiens, MIA PaCa-2, 2 h): 1.21 µM |
| C=CC(=O)N1C[C@H](C)N(c2nc(=O)n(-c3c(C(C)C)nc(CC)nc3C(C)C)c3nc(-c4ccccc4F)c(Cl)cc23)C[C@H]1C [Example 169, 6-Chloro-4-[(2S,5R)-2,5-dimethyl-4-prop-2-enoyl-piperazin-1-yl]-1-(2-ethyl-4,6-diisopropyl-pyrimidin-5-yl)-7-(2-fluorophenyl)pyrido[2,3-d]pyrimidin-2-one] | 0.55 | – |
| C=CC(=O)N1C[C@H](C)N(c2nc(=O)n(-c3c(C(C)C)nc(-c4ccoc4)nc3C(C)C)c3nc(-c4ccccc4F)c(Cl)cc23)C[C@H]1C [Example 171, 6-Chloro-4-[(2S,5R)-2,5-dimethyl-4-prop-2-enoyl-piperazin-1-yl]-7-(2-fluorophenyl)-1-[2-(3-furyl)-4,6-diisopropyl-pyrimidin-5-yl]pyrido[2,3-d]pyrimidin-2-one] | 0.206 | – |
| C=CC(=O)N1CCN(c2nc(=O)n(CC(C)(C)O)c3nc(-c4ccccc4F)c(Cl)cc23)CC1 [Example 180, 4-(4-Acryloylpiperazin-1-yl)-6-chloro-7-(2-fluorophenyl)-1-(2-hydroxy-2-methylpropyl)pyrido[2,3-d]pyrimidin-2(1H)-one] | – | Coupled exchange IC50 (5 min; μM) [1]: 85.1 µM; IC50 ([2]; Homo sapiens, MIA PaCa-2, 2 h): 10 µM |
| C=CC(=O)N1C[C@H](C)N(c2nc(=O)n(-c3c(C(C)C)cc(N4CCC4)nc3C(C)C)c3nc(-c4ccccc4F)c(Cl)cc23)C[C@H]1C [Example 182, 4-((2S,5R)-4-Acryloyl-2,5-dimethylpiperazin-1-yl)-1-(6-(azetidin-1-yl)-2,4-diisopropylpyridin-3-yl)-6-chloro-7-(2-fluorophenyl)pyrido[2,3-d]pyrimidin-2(1H)-one] | – | Coupled exchange IC50 (5 min; μM) [1]: 8.794 µM |
| C=CC(=O)N1C[C@H](C)N(c2nc(=O)n(-c3c(C)cc(CN(C)C)cc3C(C)C)c3nc(-c4c(N)cccc4F)c(F)cc23)C[C@H]1C [Example 184, 4-((2S,5R)-4-Acryloyl-2,5-dimethylpiperazin-1-yl)-7-(2-amino-6-fluorophenyl)-1-(4-((dimethylamino)methyl)-2-isopropyl-6-methylphenyl)-6-fluoropyrido[2,3-d]pyrimidin-2(1H)-one] | 2.81 | – |
| C=CC(=O)N1C[C@H](C)N(c2nc(=O)n(-c3c(C)nc(C)nc3C(C)C)c3nc(-c4ccccc4F)c(C)cc23)C[C@H]1C [Example 195, 4-((2S,5R)-4-Acryloyl-2,5-dimethylpiperazin-1-yl)-7-(2-fluorophenyl)-1-(4-isopropyl-2,6-dimethylpyrimidin-5-yl)-6-methylpyrido[2,3-d]pyrimidin-2(1H)-one] | 0.488 | – |
| C=CC(=O)N1[C@H](C)CN(c2nc(=O)n(-c3c(C(C)C)cnnc3C(C)C)c3nc(-c4ccccc4F)c(Cl)cc23)C[C@@H]1C [Example 206-1, 4-(cis-4-Acryloyl-3,5-dimethylpiperazin-1-yl)-6-chloro-1-(3,5-diisopropylpyridazin-4-yl)-7-(2-fluorophenyl)pyrido[2,3-d]pyrimidin-2(1H)-one] | – | Coupled exchange IC50 (5 min; μM) [1]: 0.143 µM |
| C=CC(=O)N1C[C@H](C)N(c2nc(=O)n(-c3c(C)cc(S(C)(=O)=O)cc3C(C)C)c3nc(-c4ccccc4F)c(Cl)cc23)C[C@H]1C [Example 215, 4-((2S,5R)-4-Acryloyl-2,5-dimethylpiperazin-1-yl)-6-chloro-7-(2-fluorophenyl)-1-(2-isopropyl-6-methyl-4-(methylsulfonyl)phenyl)pyrido[2,3-d]pyrimidin-2(1H)-one] | 0.076 | IC50 ([2]; Homo sapiens, MIA PaCa-2, 2 h): 0.275 µM |
| C=CC(=O)N1C[C@H](C)N(C2=NCC(=O)N(c3c(C)ccnc3C(C)C)c3nc(-c4ccccc4F)c(Cl)cc32)C[C@H]1C [Example 219, 5-((2S,5R)-4-Acryloyl-2,5-dimethylpiperazin-1-yl)-7-chloro-8-(2-fluorophenyl)-1-(2-isopropyl-4-methylpyridin-3-yl)-1,3-dihydro-2H-pyrido[2,3-e][1,4]diazepin-2-one] | 250 | – |
| C=CC(=O)N1C[C@H](C)N(C2=NCC(=O)N(CC(C)(C)C)c3nc(-c4ccccc4F)c(Cl)cc32)C[C@H]1C [Example 220, 5-((2S,5R)-4-Acryloyl-2,5-dimethylpiperazin-1-yl)-7-chloro-8-(2-fluorophenyl)-1-neopentyl-1,3-dihydro-2H-pyrido[2,3-e][1,4]diazepin-2-one] | 250 | – |
| C=CC(=O)N1CCN(c2c(C(N)=O)c(=O)n(-c3c(C)ccnc3C(C)C)c3nc(-c4ccccc4F)c(Cl)cc23)CC1 [Example 221, 4-(4-Acryloylpiperazin-1-yl)-6-chloro-7-(2-fluorophenyl)-1-(2-isopropyl-4-methylpyridin-3-yl)-2-oxo-1,2-dihydro-1,8-naphthyridine-3-carboxamide] | 1.26 | – |
| C=CC(=O)N1[C@H](C)CN(c2nc(=O)n(-c3c(C)ccnc3C(C)C)c3nc(-c4ccccc4F)c(Cl)nc23)C[C@@H]1C [Example 224, 4-((3R,5S)-4-Acryloyl-3,5-dimethylpiperazin-1-yl)-6-chloro-7-(2-fluorophenyl)-1-(2-isopropyl-4-methylpyridin-3-yl)pteridin-2(1H)-one] | 7.62 | – |
| C=CC(=O)N1CCN(c2nc(=O)n(-c3c(C)ccnc3C(C)C)c3nc(-c4c(C)ccc5c4CC(=O)N5)c(Cl)cc23)[C@@H](C)C1 [Example 228, 4-((S)-4-Acryloyl-2-methylpiperazin-1-yl)-6-chloro-1-(2-isopropyl-4-methylpyridin-3-yl)-7-(5-methyl-2-oxoindolin-4-yl)pyrido[2,3-d]pyrimidin-2(1H)-one] | – | Coupled exchange IC50 (5 min; μM) [1]: 0.769 µM |
| C=CC(=O)N1C[C@H](C)N(c2nc(=O)n(-c3c(C)cc([S+](C)[O-])cc3C(C)C)c3nc(-c4ccccc4F)c(Cl)cc23)C[C@@H]1C (stereo partly shown) [compound 216] | 2.01 | – |
